{"source": "patent US4847261A", "about": "“Alkoxy cycloalkanol esters of dihydrolysergic acid having peripheral serotonin antagonists properties” (Eli Lilly and Company, priority 1988, dated 1989)", "origin": "cited, not measured here", "key": {"[1]": {"system": "5HT2 receptors", "conditions": "in words; mediated by 5HT2 receptors; cited from earlier work"}, "[2]": {"system": "5HT2 receptors", "conditions": "in words; cited from earlier work"}}, "data": [{"smiles": "CC(O)C(C)OC(=O)[C@@H]1C[C@@H]2c3cccc4c3c(cn4C(C)C)C[C@H]2N(C)C1", "note": "(stereo partly drawn) [LY53857, 1-isopropyl-6-methyl-8β-(1-methyl-2-hydroxy)propoxycarbonyl-5R-ergoline]", "values": [{"measurement": "antagonism of vascular contraction to serotonin", "setting": "[1]", "value": "potent antagonist"}, {"measurement": "peripheral serotonin antagonist activity among Garbrecht compounds", "setting": "[2]", "value": "most active peripheral serotonin antagonist"}]}]}
